Data on two molecules can be found in US9474744B2, “Beta-lactam compounds for treating diabetes” (STEM CELL MEDICINE LTD., priority 2011, dated 2016).

One assay relates to NOD mice. Kind of assay: Development of autoimmune diabetes in NOD mice. The format is in vivo, mouse. From the text: Inbred female Lewis rats and NOD (non-obese diabetic) mice were supplied by the animal breeding center of the Weizmann Institute of Science, Israel, under the supervision of Harlan Laboratories and were used at 2-3 months of age. Experiments were approved by the Institutional Animal Care and Use Committee. Human peripheral blood lymphocytes from healthy donors were obtained from the blood bank of Sheba Medical Center, Tel Hashomer, Israel.
NOD mice spontaneously develop diabetes mellitus similar to type I diabetes in humans. […] The mice were followed for the development of diabetes, marked by blood sugar above 300 mg/dl on 2 measurements.

Assay [1] has as its target T1, albumin of human CD3 T cells (Homo sapiens, UniProt P02768).
T1 construct: endogenous in cells; host or cells: primary human peripheral-blood T cells (CD3+, CD4+ or CD8+) from healthy donors
Kind of assay: Western blot with Pen 9 antibody of antibiotic-treated human T cells. The format is cell-based. The settings on record: T cells activated by mitogen in presence of antibiotic. A general note: A western blot detects proteins with antibodies after separation by electrophoresis.
Method: Rat tissues were ground with a tissue grinder in lysis buffer. The homogenate was centrifuged 14000 g for 15 min in 4° C. and the supernatant was used for western blotting. The protein concentration was determined using the BIO-RAD DC™ protein assay (Bio-Rad laboratories, Hercules, Calif.). Following electrophoresis in SDS gel in a mini-gel apparatus (Bio-Rad), the gels were electro-transferred to nitrocellulose membranes (Schleicher and schuell, Dassel, Germany). The nitrocellulose membranes were washed with distilled water for 5 min, and then blocked for 60 min. using a blocking solution composed of 2% bovine serum albumin (Fraction V, Sigma, St. Louis Mo.), 2.5% milk powder (Bio-Rad), Tris (Sigma) pH 7.5 10 mM, NaCl 150 mM and 0.02% thimerosal (Sigma). After 3×10 min. washes in PBS/TWEEN® 20 (PBS/T; 0.02%, Sigma), primary antibodies (1/1000) were incubated with the membranes in PBS/TWEEN® for 60 min. Following another series of washes in PBS/T (3×10 min), the membranes were incubated with a secondary antibody (Peroxidase conjugated anti rabbit or anti mouse, IgG Jackson ImmunoResearch, West Grove, Calif.) at a 1/2500 dilution in 2% milk in PBS solution for 60 min. After another 3×10 min washes, the membranes were incubated with the ECL reagent (for 60 seconds) and exposed to X-ray film.

Another assay deals with CD4+ human T cells. Kind of assay: Real-time PCR verification of six gene-array genes. The format is cell-based. The settings on record: cDNA from the same RNA as the gene array; normalised to B2M. Here is the method: To verify the results of the gene array, we synthesized real-time PCR primers (designed with the […]® probe design software (Roche)). Real-time PCR of 6 selected genes was performed using a […]® (Roche, Basel, Switzerland). RNA was reverse transcribed to cDNA from 1 μg of total RNA, which was then subjected to quantitative RT-PCR performed essentially according to the manufacturer's instructions. Specific primer pairs were used to amplify specific genes in the presence of 3 mM MgCl2. PCR was performed in triplicate in a total volume of 20 μl of […]® HotStart DNA SYBR Green I mix (Roche) containing primer and 5 μl of cDNA. […] Denaturation was performed for 15 s at 95° C., annealing was performed in 60° C., and the extension was performed at 72° C. for 20 s, with fluorescence detection at 72° C. after each cycle. After the final cycle, melting point analyses of all samples were performed within the range of 62-95° C. with continuous fluorescence detection. […]
The Human Autoimmune and Inflammatory Response Gene Array (SuperArray Bioscience corporation, Frederick, Md., USA) was used for analysis of gene expression by the T cells. […] To verify the results detected by the gene array study, a panel of six genes was designed and tested by real-time PCR: CCR4, ACVR2, JAK1, STAT4, TLR2 and NFKBIE. […]
Background: Real-time PCR tracks product formation cycle by cycle.

In assay [2] the test system is active experimental autoimmune encephalomyelitis (EAE) in Lewis rats. In words: Actively induced EAE in rats, oral antibiotic treatment. The settings on record: oral cefuroxime Axetil in drinking water from day 7 post-induction, 50 mg/kg daily, versus the two control groups. The format is in vivo, rat.
Assay [3] concerns Adjuvant Arthritis (AA) in Lewis rats. In words: Adjuvant arthritis (AA) in rats, IP antibiotic treatment. It counts as in vivo, rat. The settings on record: IP 5 mg (25 mg/kg) once every 2 or 3 days from day 12; versus non-injected control.

Entries after “also recorded” stand apart in the source; their conditions may differ.

T1 sequence (P02768 25-609): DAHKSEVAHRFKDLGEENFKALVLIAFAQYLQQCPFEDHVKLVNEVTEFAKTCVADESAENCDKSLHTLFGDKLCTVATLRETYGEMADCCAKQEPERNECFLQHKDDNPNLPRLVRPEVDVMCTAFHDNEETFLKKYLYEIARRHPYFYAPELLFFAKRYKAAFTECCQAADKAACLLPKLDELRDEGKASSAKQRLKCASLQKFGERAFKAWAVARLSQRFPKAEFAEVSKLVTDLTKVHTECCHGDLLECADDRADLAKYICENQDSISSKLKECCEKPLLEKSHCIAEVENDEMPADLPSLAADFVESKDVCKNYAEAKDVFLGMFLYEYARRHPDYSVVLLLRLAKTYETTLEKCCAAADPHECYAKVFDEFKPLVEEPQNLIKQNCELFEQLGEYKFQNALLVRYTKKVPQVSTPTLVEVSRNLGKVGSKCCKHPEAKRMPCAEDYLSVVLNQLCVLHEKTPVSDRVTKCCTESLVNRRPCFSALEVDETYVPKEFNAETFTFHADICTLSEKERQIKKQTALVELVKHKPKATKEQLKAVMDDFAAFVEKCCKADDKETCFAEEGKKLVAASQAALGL

Take `CC1(C)S[C@@H]2[C@H](NC(=O)[C@H](N)c3ccccc3)C(=O)N2[C@H]1C(=O)O` [ampicillin]: the “development of type I diabetes in NOD mice” value in the assay with NOD mice (FIG. 1D) is reported as “Inhibition of type I diabetes”. The molecule also registered an incidence of diabetes in the assay on NOD mice (at 5.7 months, s.c. at weekly intervals, ampicillin 1300 μg or ceftriaxone 675 μg per mouse, blood sugar above 300 mg/dl on 2 measurements, control 60%) of 30%. For the same molecule, the “Pen 9 reactivity with lysates of antibiotic-treated T cells” value in assay [1] was “did not bind”.

For the molecule `CO/N=C(\C(=O)N[C@@H]1C(=O)N2C(C(=O)O)=C(COC(N)=O)CS[C@H]12)c1ccco1` [cefuroxime], the “expression of CCR4, ACVR2, JAK1, STAT4, TLR2 and NFKBIE by real-time PCR” value with CD4+ human T cells was “suppressed”. The “severity of active EAE” value in assay [2] is given as “significantly more severe EAE; also recorded: increases the severity of actively induced EAE”. Further, the arthritis scores result in assay [3] is “significantly more severe arthritis scores; also recorded: Exacerbation of adjuvant-induced arthritis”.
